Patent US20240027453A1, “METHOD FOR DETECTION AND QUANTITATIVE MONITORING OF INFECTIONS WITH HERPESVIRUSES” (The Trustees of Princeton University, priority 2020, published 2024)
Read-outs that look alike come from different tables or passages of the source.

Tested on: HCMV
Format: cell-based
Details: FIG. 7A
How it was run: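 Viral protein levels come from parallel reaction monitoring on a Q Exactive HF: trypsin digests of infected-cell lysates, quantified as summed transition areas, normalized to host control peptides, averaged across peptides per protein. Cells were MRC5 fibroblasts, infected at MOI 3 (HSV-1 or HCMV) after 12 h compound pretreatment, with re-dosing every 24 h.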
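For UL32 (P08318) protein level in this document: each peptide scaled to its average across all runs.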
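For UL38 (P16779) protein level in this document: each peptide scaled to its average across all runs.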
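For UL78 (P16751) protein level in this document: each peptide scaled to its average across all runs.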
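For UL95 (P16801) protein level in this document: each peptide scaled to its average across all runs.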

Oc1ccc(C=Cc2cc(O)cc(O)c2)cc1 [Resveratrol]
CVC2 (P16726) protein level (timepoint 24, DE): 0.02416 | DBP (P17147) protein level (timepoint 24, DE): 0.2603 | HELI (P16736) protein level (timepoint 24, DE): 0.5239 | IR01 (P09710) protein level (timepoint 24, DE): 0.2395 | NEC2 (P16791) protein level (timepoint 24, DE): 0.05031 | TRM1 (P16724) protein level (timepoint 24, DE): 0.0496 | UL4 (P17146) protein level (timepoint 24, DE): 0.02792 | UL26 (P16762) protein level (timepoint 24, DE): 0.08745 | UL32 (P08318) protein level (timepoint 24, DE): 0.02724 | UL34 (P16812) protein level (timepoint 24, DE): 0.1096 | UL38 (P16779) protein level (timepoint 24, DE): 0.9691 | UL44 (P16790) protein level (timepoint 24, DE): 0.0591 | UL48 (P16785) protein level (timepoint 24, DE): 0.02194 | UL54 (P08546) protein level (timepoint 24, DE): 0.6295 | UL71 (P16823) protein level (timepoint 24, DE): 0.5252 | UL78 (P16751) protein level (timepoint 24, DE): 1.896 | UL84 (P16727) protein level (timepoint 24, DE): 0.1406 | UL95 (P16801) protein level (timepoint 24, DE): 0.06756 | UL96 (P16787) protein level (timepoint 24, DE): 0.4727 | UL97 (P16788) protein level (timepoint 24, DE): 0.3652 | UL98 (P16789) protein level (timepoint 24, DE): 0.2979 | UL102 (P16827) protein level (timepoint 24, DE): 0.889 | UL104 (P16735) protein level (timepoint 24, DE): 0.07335 | UL112/UL113 (P17151) protein level (timepoint 24, DE): 0.3601 | UL114 (P16769) protein level (timepoint 24, DE): 0.8008 | UL119/UL118 (P16739) protein level (timepoint 24, DE): 0.5596 | UL128 (P16837) protein level (timepoint 24, DE): 0.08035 | US8 (P09730) protein level (timepoint 24, DE): 0.9856 | US9 (P09729) protein level (timepoint 24, DE): 1.12 | US12 (P09721) protein level (timepoint 24, DE): 1.673 | US13 (P09720) protein level (timepoint 24, DE): 0.5476 | US14 (P09719) protein level (timepoint 24, DE): 0.3883 | US22 (P09722) protein level (timepoint 24, DE): 0.3379 | US23 (P09701) protein level (timepoint 24, DE): 1.209 | US24 (P09700) protein level (timepoint 24, DE): 1.019 | US34 (P09709) protein level (timepoint 24, DE): 2.475 | gB (P06473) protein level (timepoint 24, DE): 0.2035 | IRS1 (P09715) protein level (timepoint 24, IE): 0.53 | TRS1 (P09695) protein level (timepoint 24, IE): 0.2907 | UL13 (P16755) protein level (timepoint 24, IE): 2.216 | UL36 (P16767) protein level (timepoint 24, IE): 1.36 | UL37 (P16778) protein level (timepoint 24, IE): 0.9797 | UL122 (P19893) protein level (timepoint 24, IE): 0.06584 | UL123 (P13202) protein level (timepoint 24, IE): 1.053 | CVC1 (P16799) protein level (timepoint 24, L): 0.1335 | IR11 (P16809) protein level (timepoint 24, L): 0.4092 | MCP (P16729) protein level (timepoint 24, L): 0.005554 | TRM2 (P16792) protein level (timepoint 24, L): 0.01236 | UL22A (P16845) protein level (timepoint 24, L): 0.06878 | UL25 (P16761) protein level (timepoint 24, L): 0.02173 | UL29 (P16764) protein level (timepoint 24, L): 0.6989 | UL31 (P16848) protein level (timepoint 24, L): 0.4434 | UL43 (P16781) protein level (timepoint 24, L): 0.0621 | UL52 (P16793) protein level (timepoint 24, L): 0.02488 | UL80 (P16753) protein level (timepoint 24, L): 0.03642 | UL82 (P06726) protein level (timepoint 24, L): 0.2024 | UL88 (P16731) protein level (timepoint 24, L): 0.05174 | UL94 (P16800) protein level (timepoint 24, L): 0.1027 | UL99 (P13200) protein level (timepoint 24, L): 0.04805 | UL103 (P16734) protein level (timepoint 24, L): 0.3861 | UL117 (P16770) protein level (timepoint 24, L): 0.7439 | gH (P12824) protein level (timepoint 24, L): 0.08651 | gL (P16832) protein level (timepoint 24, L): 0.03756 | gM (P16733) protein level (timepoint 24, L): 0.04047 | gN (P16795) protein level (timepoint 24, L): 0.1854 | DUT (P16824) protein level (timepoint 24, LL): 0.3815 | IR12 (P16810) protein level (timepoint 24, LL): 0.1305 | TRX1 (P16783) protein level (timepoint 24, LL): 0.007402 | TRX2 (P16728) protein level (timepoint 24, LL): 0.006335 | UL24 (P16760) protein level (timepoint 24, LL): 0.115 | UL40 (P16780) protein level (timepoint 24, LL): 0.6816 | UL47 (P16784) protein level (timepoint 24, LL): 0.01314 | UL49 (P16786) protein level (timepoint 24, LL): 0.3801 | UL69 (P16749) protein level (timepoint 24, LL): 0.259 | UL70 (P17149) protein level (timepoint 24, LL): 0.2151 | UL83 (P06725) protein level (timepoint 24, LL): 0.04868 | UL132 (P69338) protein level (timepoint 24, LL): 0.1519 | US15 (P09718) protein level (timepoint 24, LL): 2.089 | CVC2 (P16726) protein level (timepoint 48, DE): 0.04895 | DBP (P17147) protein level (timepoint 48, DE): 0.3174 | HELI (P16736) protein level (timepoint 48, DE): 0.7035 | IR01 (P09710) protein level (timepoint 48, DE): 0.3325 | NEC2 (P16791) protein level (timepoint 48, DE): 0.1347 | RIR1 (P16782) protein level (timepoint 48, DE): 0.1467 | TRM1 (P16724) protein level (timepoint 48, DE): 0.1744 | UL4 (P17146) protein level (timepoint 48, DE): 0.1071 | UL26 (P16762) protein level (timepoint 48, DE): 0.09224 | UL32 (P08318) protein level (timepoint 48, DE): 0.06407 | UL34 (P16812) protein level (timepoint 48, DE): 0.1265 | UL35 (P16766) protein level (timepoint 48, DE): 0.02653 | UL38 (P16779) protein level (timepoint 48, DE): 0.8069 | UL44 (P16790) protein level (timepoint 48, DE): 0.09657 | UL48 (P16785) protein level (timepoint 48, DE): 0.05393 | UL54 (P08546) protein level (timepoint 48, DE): 0.9464 | UL71 (P16823) protein level (timepoint 48, DE): 0.3661 | UL78 (P16751) protein level (timepoint 48, DE): 1.07 | UL84 (P16727) protein level (timepoint 48, DE): 0.1489 | UL95 (P16801) protein level (timepoint 48, DE): 0.2914 | UL96 (P16787) protein level (timepoint 48, DE): 0.3861 | UL97 (P16788) protein level (timepoint 48, DE): 0.3732 | UL98 (P16789) protein level (timepoint 48, DE): 0.3412 | UL102 (P16827) protein level (timepoint 48, DE): 1.27 | UL104 (P16735) protein level (timepoint 48, DE): 0.1091 | UL112/UL113 (P17151) protein level (timepoint 48, DE): 0.4545 | UL114 (P16769) protein level (timepoint 48, DE): 1.322 | UL119/UL118 (P16739) protein level (timepoint 48, DE): 0.6367 | UL128 (P16837) protein level (timepoint 48, DE): 0.03596 | US8 (P09730) protein level (timepoint 48, DE): 1.343 | US9 (P09729) protein level (timepoint 48, DE): 2.242 | US12 (P09721) protein level (timepoint 48, DE): 0.8964 | US13 (P09720) protein level (timepoint 48, DE): 0.5923 | US14 (P09719) protein level (timepoint 48, DE): 0.2304 | US22 (P09722) protein level (timepoint 48, DE): 0.5371 | US23 (P09701) protein level (timepoint 48, DE): 0.5982 | US24 (P09700) protein level (timepoint 48, DE): 0.4857 | US34 (P09709) protein level (timepoint 48, DE): 2.409 | gB (P06473) protein level (timepoint 48, DE): 0.1991 | IRS1 (P09715) protein level (timepoint 48, IE): 0.8671 | TRS1 (P09695) protein level (timepoint 48, IE): 0.7123 | UL13 (P16755) protein level (timepoint 48, IE): 0.6646 | UL36 (P16767) protein level (timepoint 48, IE): 1.045 | UL37 (P16778) protein level (timepoint 48, IE): 1.143
